Our source for the IC50 values is BindingDB's records for patent US20250333410 (Xizang Haisco Pharmaceutical, 2025).

Structures are written as SMILES.

For orientation: IC50 means the concentration needed to halve the response being measured. Read a low IC50 as higher potency.

Potassium voltage-gated channel subfamily H member 2, sequence (Q12809 whole entry): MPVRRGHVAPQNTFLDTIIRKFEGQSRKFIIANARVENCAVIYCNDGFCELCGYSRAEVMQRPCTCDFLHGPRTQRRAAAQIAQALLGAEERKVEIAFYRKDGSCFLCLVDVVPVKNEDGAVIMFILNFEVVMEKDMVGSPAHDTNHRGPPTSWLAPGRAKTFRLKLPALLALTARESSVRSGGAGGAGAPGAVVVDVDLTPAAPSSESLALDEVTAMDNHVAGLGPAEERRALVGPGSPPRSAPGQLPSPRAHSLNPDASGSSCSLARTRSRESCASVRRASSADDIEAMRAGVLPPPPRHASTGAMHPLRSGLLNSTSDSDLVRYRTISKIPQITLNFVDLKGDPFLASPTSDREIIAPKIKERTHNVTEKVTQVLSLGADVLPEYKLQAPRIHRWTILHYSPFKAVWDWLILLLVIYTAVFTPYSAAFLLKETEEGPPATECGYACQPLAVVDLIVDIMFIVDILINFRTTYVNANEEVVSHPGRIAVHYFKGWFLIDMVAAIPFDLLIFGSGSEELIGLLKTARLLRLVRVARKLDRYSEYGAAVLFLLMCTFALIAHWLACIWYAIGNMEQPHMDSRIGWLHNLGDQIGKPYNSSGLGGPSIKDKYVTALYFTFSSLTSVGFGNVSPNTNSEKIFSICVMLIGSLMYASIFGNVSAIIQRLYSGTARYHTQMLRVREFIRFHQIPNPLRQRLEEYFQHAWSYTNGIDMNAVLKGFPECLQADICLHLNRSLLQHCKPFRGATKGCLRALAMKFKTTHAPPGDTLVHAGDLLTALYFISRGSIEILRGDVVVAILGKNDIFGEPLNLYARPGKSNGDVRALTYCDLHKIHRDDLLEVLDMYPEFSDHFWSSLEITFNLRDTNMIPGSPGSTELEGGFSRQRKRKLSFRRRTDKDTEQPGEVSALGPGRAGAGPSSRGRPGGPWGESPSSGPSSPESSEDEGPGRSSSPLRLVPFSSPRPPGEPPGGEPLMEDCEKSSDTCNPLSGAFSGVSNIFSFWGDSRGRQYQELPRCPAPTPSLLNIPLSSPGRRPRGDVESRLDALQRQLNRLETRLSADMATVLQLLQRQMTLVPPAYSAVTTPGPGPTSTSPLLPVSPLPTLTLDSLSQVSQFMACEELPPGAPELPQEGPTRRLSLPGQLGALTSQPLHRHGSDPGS

In the data set the target is Potassium voltage-gated channel subfamily H member 2 (Homo sapiens, UniProt Q12809). Kind of data set: Test for hERG Potassium Ion Channel. An excerpt:
Experimental method: in CHO (Chinese Hamster Ovary) cells stably expressing hERG potassium channel, the whole cell patch-clamp technique was used to record hERG potassium channel current at room temperature. The glass microelectrode was made of a glass electrode blank (BF150-86-10, Sutter) by a puller. The tip resistance after filling the liquid in the electrode was about 2-5 MΩ. The glass microelectrode can be connected to the patch-clamp amplifier by inserting the glass microelectrode into an amplifier probe. The clamping voltage and data recording were controlled and recorded by the pClamp 10 software through a computer. The sampling frequency was 10 kHz, and the filtering frequency was 2 kHz. After the whole cell records were obtained, the cells were clamped at −80 mV, and the step voltage that induced the hERG potassium current (IhERG) was depolarized from −80 mV to +20 mV for 2 s, then repolarized to −50 mV, and returned to −80 mV after 1 s. This voltage stimulation was given every 10 s, and the administration process was started after the hERG potassium current was confirmed to be stable (at least 1 minute). The compound was administered for at least 1 minute at each test concentration, and at least 2 cells (n≥2) were tested at each concentration.
Background: Block of hERG is tested as a sign of cardiac risk.
`CNC(=O)COc1cc2cc(Nc3nc(N4CCC(CN5CCC(C6CCN(c7cccc8c(C9CCC(=O)NC9=O)nn(C)c78)CC6)CC5)CC4)ncc3Cl)ccc2n(C)c1=O` (stereo unspecified) [US20250333410, Compound 8] displayed an IC50 above 40 µM.
In the case of `CNC(=O)COc1cc2cc(Nc3nc(N4CCC(CN5CCC(c6cccc7c6n(C)c(=O)n7C6CCC(=O)NC6=O)CC5)CC4)ncc3Cl)ccc2n(C)c1=O` (stereo unspecified) [US20250333410, Compound 35], the IC50 is above 30 µM.
The figure for `CNC(=O)COc1cc2cc(Nc3nc(N4CCN(CC5CCN(c6ccc7c8c(oc7c6)C(=O)N(C6CCC(=O)NC6=O)C8)CC5)CC4)ncc3Cl)ccc2n(C)c1=O` (stereo unspecified) [US20250333410, Compound 46] is above 30 µM.
The figure for `CNC(=O)COc1cc2cc(Nc3nc(N4CCN(CC5CC6(CCN(c7scc8c7C(=O)N(C7CCC(=O)NC7=O)C8=O)CC6)C5)CC4)ncc3Cl)ccc2n(C)c1=O` (stereo unspecified) [US20250333410, Compound 67] is above 40 µM.
The figure for `CNC(=O)COc1cc2cc(Nc3nc(N4CCC(N5CCN(c6ccc(NC7CCC(=O)NC7=O)cc6F)CC5)C(F)(F)C4)ncc3Cl)ccc2n(C)c1=O` (stereo unspecified) [US20250333410, Compound 71] is above 40 µM; for `CNC(=O)COc1cc2cc(Nc3nc(N4CC[C@@H](N5CCN(c6ccc(N[C@@H]7CCC(=O)NC7=O)cc6F)CC5)C(F)(F)C4)ncc3Cl)ccc2n(C)c1=O` [US20250333410, Compound 72] it is above 40 µM; for `CNC(=O)COc1cc2cc(Nc3nc(N4CC[C@H](N5CCN(c6ccc(N[C@@H]7CCC(=O)NC7=O)cc6F)CC5)C(F)(F)C4)ncc3Cl)ccc2n(C)c1=O` [US20250333410, Compound 73] it is above 40 µM.
For the molecule `CC(=O)COc1cc2cc(Nc3nc(N4CC[C@@H](N5CCN(c6ccc(N[C@H]7CCC(=O)NC7=O)cc6F)CC5)C(F)(F)C4)ncc3Cl)ccc2n(C)c1=O` [US20250333410, Compound 75], the IC50 was above 40 µM.
The figure for `CC(=O)COc1cc2cc(Nc3nc(N4CCC(N5CCN(c6c(F)cc(C7CCC(=O)NC7=O)cc6F)CC5)C(F)(F)C4)ncc3Cl)ccc2n(C)c1=O` (stereo unspecified) [US20250333410, Compound 76] is above 40 µM; for `CNC(=O)COc1cc2cc(Nc3nc(N4CCC(N5CCN(c6cccc7c6n(C)c(=O)n7C6CCC(=O)NC6=O)CC5)C(F)(F)C4)ncc3Cl)ccc2n(C)c1=O` (stereo unspecified) [US20250333410, Compound 77] it is above 40 µM; for `CCC(=O)COc1cc2cc(Nc3nc(N4CCC(N5CCN(c6cccc7c(C8CCC(=O)NC8=O)nn(C)c67)CC5)C(F)(F)C4)ncc3Cl)ccc2n(C)c1=O` (stereo unspecified) [US20250333410, Compound 78] it is above 40 µM.
